Laboratory results reported in patent US10183914B2 (BAYER CROPSCIENCE AKTIENGESELLSCHAFT, priority 2014, dated 2019).

Tests used:
[1] = logp (HCOOH), physicochemical characterization
Ipomoea purpurea = test: Post-emergence herbicidal effect; format: in vivo; conditions: 320 g/ha (dose by row order of upper half), scoring after about 3 weeks
Method: (§1) Seeds of monocotyledonous and dicotyledonous weed and crop plants are laid out in sandy loam in wood-fiber pots, covered with soil and cultivated in a greenhouse under good growth conditions. 2 to 3 weeks after sowing, the test plants are treated at the one-leaf stage. The compounds of the invention, formulated in the form of wettable powders (WP) or as emulsion concentrates (EC), are then sprayed onto the green parts of the plants as aqueous suspension or emulsion at a water application rate equating to 600 to 800 L/ha with addition of 0.2% wetting agent. After the trial plants have been left to stand in a greenhouse under optimal growth conditions for about 3 weeks, the efficacy of the formulations is scored visually in comparison to untreated controls (herbicidal action in percent (%): 100% efficacy=the plants have died, 0% efficacy=like control plants).

Zea mays [2] = test: Pre-emergence herbicidal effect and crop plant compatibility; format: in vivo; conditions: 3 weeks
Method in brief: (§2)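 Scoring was visual, 3 weeks after treatment, as percent damage relative to untreated controls. Before emergence, test compounds in WP or EC form had been applied in water at 600 to 800 L/ha with 0.2% wetting agent to the covering soil of seeds sown in sandy loam.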

Oryza sativa [3] = test: as above; format: in vivo; conditions: 3 weeks
Method in brief: as §2

[4] = test system: Triticum aestivum (spring); test: as above; format: in vivo; conditions: 3 weeks
Method in brief: as §2

Echinochloa crus-galli [5] = test: Pre-emergence herbicidal effect; format: in vivo; conditions: 3 weeks
Method in brief: as §2

Setaria viridis [6] = test: Pre-emergence herbicidal effect; format: in vivo; conditions: 3 weeks
Method in brief: as §2

Veronica persica = test: Pre-emergence herbicidal effect; format: in vivo; conditions: 3 weeks
Method in brief: as §2

Viola tricolor = test: Pre-emergence herbicidal effect; format: in vivo; conditions: 3 weeks
Method in brief: as §2

Matricaria inodora = test: Pre-emergence herbicidal effect; format: in vivo; conditions: 3 weeks
Method in brief: as §2

Stellaria media = test: Pre-emergence herbicidal effect; format: in vivo; conditions: 3 weeks
Method in brief: as §2

Amaranthus retroflexus = test: Pre-emergence herbicidal effect; format: in vivo; conditions: 3 weeks
Method in brief: as §2

Alopecurus myosuroides = test: Pre-emergence herbicidal effect; format: in vivo; conditions: 320 g/ha, 3 weeks
Method in brief: as §2

Polygonum convolvulus = test: Pre-emergence herbicidal effect; format: in vivo; conditions: 320 g/ha, 3 weeks
Method in brief: as §2

Lolium multiflorum [7] = test: Pre-emergence herbicidal effect; format: in vivo; conditions: 3 weeks
Method in brief: as §2

Zea mays [8] = test: Post-emergence herbicidal effect and crop plant compatibility; format: in vivo; conditions: visual scoring after about 3 weeks
Method: as §1

Oryza sativa [9] = test: as above; format: in vivo; conditions: visual scoring after about 3 weeks
Method: as §1

[10] = test system: Triticum aestivum (spring); test: as above; format: in vivo; conditions: visual scoring after about 3 weeks
Method: as §1

Abutilon theophrasti = test: Pre-emergence herbicidal effect; format: in vivo; conditions: 320 g/ha, 3 weeks
Method in brief: as §2

Echinochloa crus-galli [11] = test: Post-emergence herbicidal effect; format: in vivo; conditions: 320 g/ha, visual scoring after about 3 weeks
Method: as §1

Lolium multiflorum [12] = test: Post-emergence herbicidal effect; format: in vivo; conditions: 320 g/ha, visual scoring after about 3 weeks
Method: as §1

Avena fatua = test: Pre-emergence herbicidal effect; format: in vivo; conditions: 320 g/ha, 3 weeks
Method in brief: as §2

Setaria viridis [13] = test: Post-emergence herbicidal effect; format: in vivo; conditions: 320 g/ha (dose by row order of upper half), scoring after about 3 weeks
Method: as §1

Structure (SMILES)	logp (HCOOH) [1]	post-emergence efficacy PHBPU (Ipomoea purpurea) [%]	ZEAMX herbicidal activity in percent (Zea mays [2]; 80 g/ha) [%]	ZEAMX herbicidal activity in percent (Zea mays [2]; 320 g/ha) [%]	ORYSA herbicidal activity in percent (Oryza sativa [3]; 320 g/ha) [%]	TRZAS herbicidal activity in percent ([4]; 80 g/ha) [%]	TRZAS herbicidal activity in percent ([4]; 320 g/ha) [%]	ECHCG herbicidal activity in percent (Echinochloa crus-galli [5]; 320 g/ha) [%]	SETVI herbicidal activity in percent (Setaria viridis [6]; 320 g/ha) [%]	VERPE herbicidal activity in percent (Veronica persica; 80 g/ha) [%]	VERPE herbicidal activity in percent (Veronica persica; 320 g/ha) [%]	VIOTR herbicidal activity in percent (Viola tricolor; 320 g/ha) [%]	MATIN herbicidal activity in percent (Matricaria inodora; 320 g/ha) [%]	STEME herbicidal activity in percent (Stellaria media; 80 g/ha) [%]	STEME herbicidal activity in percent (Stellaria media; 320 g/ha) [%]	AMARE herbicidal activity in percent (Amaranthus retroflexus; 80 g/ha) [%]	AMARE herbicidal activity in percent (Amaranthus retroflexus; 320 g/ha) [%]	ALOMY herbicidal activity in percent (Alopecurus myosuroides) [%]	LOLMU herbicidal activity in percent (Lolium multiflorum [7]; 320 g/ha) [%]	post-emergence efficacy ORYSA (Oryza sativa [9]; 320 g/ha) [%]	further results
O=C1CC(C(F)(F)F)Cc2nc(N[C@@H]3CCCc4ccccc43)ncc21 (some centres unmarked) [2.96]	oily; logp (HCOOH): 3.71; 1H-NMR (CDCl3, 400 MHZ, δ in ppm): ): 1.95 (m, 3H, 2H	80	0	10	0	0	0	100	90	100	100	100	90	100	100	100	100	80	90	0	VIOTR herbicidal activity in percent (Viola tricolor; 80 g/ha): 100%; POLCO herbicidal activity in percent (Polygonum convolvulus): 80%; post-emergence efficacy ZEAMX (Zea mays [8]; 80 g/ha): 0%; post-emergence efficacy ZEAMX (Zea mays [8]; 320 g/ha): 10%; post-emergence efficacy ORYSA (Oryza sativa [9]; 80 g/ha): 0%; post-emergence efficacy TRZAS ([10]; 80 g/ha): 10%; post-emergence efficacy TRZAS ([10]; 320 g/ha): 20%
Cc1ccc2c(c1)C(Nc1ncc3c(n1)CCCC3=O)CO2 (racemic) [2.117]	oily; logp (HCOOH): 2.52; 1H-NMR (CDCl3, 400 MHZ, δ in ppm): 2.10 (m, 2H, 2H	–	–	20	0	–	0	–	–	–	–	–	100	–	–	–	–	–	–	–	ABUTH herbicidal activity in percent (Abutilon theophrasti): 80%
O=C1CCCc2nc(N[C@@H]3CCOc4c(F)cccc43)ncc21 [2.19]	oily; logp (HCOOH): 2.29; 1H-NMR (CDCl3, 400 MHZ, δ in ppm): 2.15 (m, 3H, 2H	80	–	10	–	–	0	100	100	–	100	100	100	–	100	–	100	100	100	20	post-emergence efficacy ECHCG (Echinochloa crus-galli [11]): 100%; post-emergence efficacy LOLMU (Lolium multiflorum [12]): 100%; AVEFA herbicidal activity in percent (Avena fatua): 90%; POLCO herbicidal activity in percent (Polygonum convolvulus): 100%; post-emergence efficacy TRZAS ([10]; 320 g/ha): 20%
Cc1ccc2c(c1)[C@H](Nc1ncc3c(n1)CCCC3=O)[C@@H](C)C2 [2.118]	oily; logp (HCOOH): 4.51; 1H-NMR (CDCl3, 400 MHZ, δ in ppm): 1.25 (d, 3H, 3H	100	0	0	10	0	–	100	100	100	100	100	100	100	100	100	100	90	100	0	post-emergence efficacy ECHCG (Echinochloa crus-galli [11]): 100%; post-emergence efficacy SETVI (Setaria viridis [13]): 80%; post-emergence efficacy LOLMU (Lolium multiflorum [12]): 80%; ORYSA herbicidal activity in percent (Oryza sativa [3]; 80 g/ha): 10%; SETVI herbicidal activity in percent (Setaria viridis [6]; 80 g/ha): 100%; VIOTR herbicidal activity in percent (Viola tricolor; 80 g/ha): 100%; MATIN herbicidal activity in percent (Matricaria inodora; 80 g/ha): 90%; POLCO herbicidal activity in percent (Polygonum convolvulus): 100%; LOLMU herbicidal activity in percent (Lolium multiflorum [7]; 80 g/ha): 80%; post-emergence efficacy ZEAMX (Zea mays [8]; 80 g/ha): 0%; post-emergence efficacy ZEAMX (Zea mays [8]; 320 g/ha): 10%; post-emergence efficacy ORYSA (Oryza sativa [9]; 80 g/ha): 0%; post-emergence efficacy TRZAS ([10]; 80 g/ha): 0%
CC(C)C1CC(=O)c2cnc(N[C@@H]3CCc4ccccc43)nc2C1 (some centres unmarked) [2.103]	–	–	0	0	0	0	0	100	–	100	100	100	100	100	100	100	100	80	90	0	post-emergence efficacy LOLMU (Lolium multiflorum [12]): 80%; ORYSA herbicidal activity in percent (Oryza sativa [3]; 80 g/ha): 0%; ECHCG herbicidal activity in percent (Echinochloa crus-galli [5]; 80 g/ha): 90%; MATIN herbicidal activity in percent (Matricaria inodora; 80 g/ha): 100%; post-emergence efficacy ZEAMX (Zea mays [8]; 80 g/ha): 0%; post-emergence efficacy ZEAMX (Zea mays [8]; 320 g/ha): 0%; post-emergence efficacy ORYSA (Oryza sativa [9]; 80 g/ha): 0%; post-emergence efficacy TRZAS ([10]; 80 g/ha): 10%; post-emergence efficacy TRZAS ([10]; 320 g/ha): 20%
